Laboratory results from patent publication US12122764B2, “IKAROS zinc finger family degraders and uses thereof” (Gilead Sciences, Inc., priority 2021, dated 2024).

target: T1, IKZF2 (Homo sapiens, UniProt Q96SW2+Q9UKS7); test: HiBiT protein tagging assay, in vitro IKZF2 degradation (HEK293); assay type: cell-based; conditions: IKZF2-HiBiT reporter Flp-In T-REx HEK293 cells, doxycycline-induced, compound overnight (18-24 hr), normalized to DMSO control
T1 construct: expressed in transfected cells
Experimental: In vitro degradation of IKZF1 and IKZF2 was measured using HiBiT protein tagging and detection technology (Promega).
HiBiT technology (Promega) was used to develop the quantitative assays to measure the cellular IKZFs level by tagging an 11 amino acid HiBit peptides VSGWRLFKKIS (SEQ ID NO:1) to the protein of interest. Reporter plasmids were generated by fusing a linker sequence (GSSGGSSG; SEQ ID NO:2) followed by the HiBiT tag at the C terminus of IKZF1 and IKZF2. The fusion fragments were subsequently cloned into pcDNA5 pcDNA™5/FRT/TO plasmids (Thermo Fisher, cat #V652020) downstream of the Tetracycline operator. The resulting plasmids were co-transfected with pOG44 Flp-Recombinase Expression Vector (Thermo Fisher, cat #V600520) into Flp-In™ T-REx HEK293 line (Thermo Fisher, cat #R78077) and a stable cell pool was selected by adding 100 μg/ml of Hygromycin (Thermo Fisher, cat #10687010). The reporter cell enabled Tet-On inducible reporter expression from a single copy of the integrated gene.
On Day 1, Cells were grown to ˜80% confluency in TC medium (DMEM Glutamax (Gibco10569), 10% Tet free FBS (Takara 631106), and PenStrep Glutamin (Gibco 10378)) in tissue culture flasks. Doxycycline was then added to a final concentration of 1 μg/ml to induce reporter expression at 37° C. overnight.
On Day 2, 125 nL of serially-diluted solution of testing compounds were dispensed into 384-well white solid assay plates via ECHO acoustic liquid handler. Cells were lifted by 0.25% Trypsin (Gibco 25200) then pelleted by centrifugation (Beckman Avanti J-E) at 500×g for 5 min. Cell pellets were resuspended in TC medium at the concentration of 3e5/mL and 25 μL of cell suspension were added into each well of compound-spotted plates. The plates were returned to a 37° C. incubator overnight (18-24 hr).
On Day 3, assay plates were removed from the TC incubator and 25 μL of Nano-Glo lytic detection system (Promega, cat #N3030) was added to each well. Plates were incubated at r.t. for 3 min with shaking, and luminescence was read using an Envision reader (Perkin Elmer).
All raw data was normalized to DMSO control (final concentration: 0.5%) wells as POC and plotted out for EC50 and Dmax (Maximum degradation at the highest concentration tested in the assay).

T1 sequence (Q9UKS7 1-500 isoform Q9UKS7-2): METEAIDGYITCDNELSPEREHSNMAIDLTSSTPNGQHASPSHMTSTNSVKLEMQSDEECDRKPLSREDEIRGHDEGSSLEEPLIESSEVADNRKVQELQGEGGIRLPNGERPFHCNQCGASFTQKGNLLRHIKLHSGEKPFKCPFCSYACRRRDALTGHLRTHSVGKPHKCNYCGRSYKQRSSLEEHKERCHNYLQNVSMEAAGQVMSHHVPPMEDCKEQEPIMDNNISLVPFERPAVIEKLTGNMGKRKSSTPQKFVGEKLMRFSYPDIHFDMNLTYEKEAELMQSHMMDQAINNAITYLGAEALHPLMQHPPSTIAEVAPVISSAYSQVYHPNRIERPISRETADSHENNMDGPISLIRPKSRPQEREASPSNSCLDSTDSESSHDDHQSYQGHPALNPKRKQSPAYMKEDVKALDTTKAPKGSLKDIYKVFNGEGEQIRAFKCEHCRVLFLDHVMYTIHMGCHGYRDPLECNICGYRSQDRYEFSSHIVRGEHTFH
T1 sequence (Q96SW2 whole entry): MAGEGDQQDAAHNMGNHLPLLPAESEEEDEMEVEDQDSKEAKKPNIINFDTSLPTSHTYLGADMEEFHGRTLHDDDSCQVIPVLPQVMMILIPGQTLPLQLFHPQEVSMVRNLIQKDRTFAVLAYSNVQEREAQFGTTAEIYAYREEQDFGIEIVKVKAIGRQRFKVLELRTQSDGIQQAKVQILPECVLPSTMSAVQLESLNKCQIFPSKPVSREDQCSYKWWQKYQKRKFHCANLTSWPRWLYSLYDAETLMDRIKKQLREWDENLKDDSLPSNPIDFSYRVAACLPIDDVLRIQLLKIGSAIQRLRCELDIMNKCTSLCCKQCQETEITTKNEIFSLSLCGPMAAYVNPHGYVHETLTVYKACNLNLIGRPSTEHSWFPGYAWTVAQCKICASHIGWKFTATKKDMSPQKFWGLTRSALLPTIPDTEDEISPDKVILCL
T1 sequence (Q16531 whole entry partner): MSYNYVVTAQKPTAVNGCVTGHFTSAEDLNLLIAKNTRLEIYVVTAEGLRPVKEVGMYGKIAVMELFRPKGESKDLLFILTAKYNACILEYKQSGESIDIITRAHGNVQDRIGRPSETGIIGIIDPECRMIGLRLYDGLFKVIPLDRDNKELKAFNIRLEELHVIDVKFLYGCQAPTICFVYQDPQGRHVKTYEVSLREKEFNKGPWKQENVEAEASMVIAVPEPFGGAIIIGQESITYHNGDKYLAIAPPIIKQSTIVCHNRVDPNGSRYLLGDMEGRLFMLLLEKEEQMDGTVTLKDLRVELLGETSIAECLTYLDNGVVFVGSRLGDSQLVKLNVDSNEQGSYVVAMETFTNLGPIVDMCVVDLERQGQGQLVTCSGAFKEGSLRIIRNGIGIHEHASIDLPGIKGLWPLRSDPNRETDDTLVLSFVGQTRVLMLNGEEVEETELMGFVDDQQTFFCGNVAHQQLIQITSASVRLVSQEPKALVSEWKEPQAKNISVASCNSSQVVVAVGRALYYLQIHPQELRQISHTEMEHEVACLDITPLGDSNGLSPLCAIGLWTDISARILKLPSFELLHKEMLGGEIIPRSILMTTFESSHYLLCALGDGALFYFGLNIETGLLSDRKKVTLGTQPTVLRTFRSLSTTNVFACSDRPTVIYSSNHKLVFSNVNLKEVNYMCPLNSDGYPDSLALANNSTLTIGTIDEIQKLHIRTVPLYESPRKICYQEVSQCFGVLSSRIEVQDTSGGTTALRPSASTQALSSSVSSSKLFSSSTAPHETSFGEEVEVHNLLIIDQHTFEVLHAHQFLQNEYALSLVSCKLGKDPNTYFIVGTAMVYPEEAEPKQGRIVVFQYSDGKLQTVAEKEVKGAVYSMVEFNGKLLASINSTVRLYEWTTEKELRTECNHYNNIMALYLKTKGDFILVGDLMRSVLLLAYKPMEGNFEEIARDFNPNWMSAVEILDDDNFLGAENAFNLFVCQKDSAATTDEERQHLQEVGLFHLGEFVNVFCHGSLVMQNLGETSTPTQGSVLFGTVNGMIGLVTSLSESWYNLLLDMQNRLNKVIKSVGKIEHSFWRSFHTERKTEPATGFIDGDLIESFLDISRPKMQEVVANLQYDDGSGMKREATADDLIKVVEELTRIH

Row | SMILES | IKZF2 Dmax (maximum degradation at the highest concentration tested)
1 | O=C1CCC(N2Cc3cc(O[C@@H]4CN(Cc5ccccc5)CC[C@H]4NC(=O)NCc4ccccc4)ccc3C2=O)C(=O)N1 (relative stereo) [Example 55, 1-benzyl-3-((3,4-trans)-1-benzyl-3-((2-(2,6-dioxopiperidin-3-yl)-1-oxoisoindolin-5-yl)oxy)piperidin-4-yl)urea] | 91%

same assay, conditions: IKZF2-HiBiT reporter Flp-In T-REx HEK293 cells, doxycycline-induced, compound overnight (18-24 hr), normalized to DMSO control; read-out: IKZF2 Dmax (maximum degradation at the highest concentration tested)

Row | SMILES | Dmax
2 | O=C1CCC(N2Cc3cc(OC4CN(Cc5ccccc5)CCC4Nc4ccccc4)ccc3C2=O)C(=O)N1 (stereo not drawn) [Example 43, 3-(5-(((3,4-trans)-1-benzyl-4-(phenylamino)piperidin-3-yl)oxy)-1-oxoisoindolin-2-yl)piperidine-2,6-dione] | 48%
3 | O=C1CCC(N2Cc3cc(OC4CN(Cc5ccccc5)CCC4NCc4ccccn4)ccc3C2=O)C(=O)N1 (racemic) [Example 13] | 84%
4 | CCN[C@H]1CCN(Cc2ccc(F)cc2)C[C@@H]1Oc1ccc2c(c1)CN(C1CCC(=O)NC1=O)C2=O (some centres unmarked) [Example 64] | 98%
5 | O=C1CCC(N2Cc3cc(O[C@H]4CN(Cc5cc(F)cc(F)c5)CC[C@@H]4NCc4ccccc4)ccc3C2=O)C(=O)N1 (mixture of isomers) [Example 25] | 75%
6 | CCOC1CN(C2CCN(Cc3ccccc3)CC2Oc2ccc3c(c2)CN(C2CCC(=O)NC2=O)C3=O)C1 (racemic) [Example 58] | 96%
7 | O=C1CCC(N2Cc3cc(O[C@@H]4CN(CC(F)(F)F)CC[C@H]4NCc4ccccc4)ccc3C2=O)C(=O)N1 (relative stereo) [Example 40, 3-(5-((trans-4-(benzylamino)-1-(2,2,2-trifluoroethyl)piperidin-3-yl)oxy)-1-oxoisoindolin-2-yl)piperidine-2,6-dione] | 57%
8 | O=C1CCC(N2Cc3cc(OC4CN(Cc5cccnc5)CCC4NCc4ccccc4)ccc3C2=O)C(=O)N1 (racemic) [Example 7] | 92%
9 | O=C1CCC(N2Cc3cc(O[C@H]4CN(Cc5cccc(F)c5F)CC[C@@H]4NCc4ccccc4)ccc3C2=O)C(=O)N1 (mixture of isomers) [Example 20] | 86%
10 | O=C1CCC(N2Cc3cc(O[C@H]4CN(Cc5ccccc5)CC[C@@H]4NCc4cccc(F)c4)ccc3C2=O)C(=O)N1 (mixture of isomers) [Example 29] | 88%
11 | O=C1CCC(N2Cc3cc(O[C@H]4CN(Cc5ccc(F)cc5)CC[C@@H]4NCc4ccccc4)ccc3C2=O)C(=O)N1 (mixture of isomers) [Example 18] | 97%
12 | O=C1CCC(N2Cc3cc(O[C@H]4CN(Cc5ccc(C(F)(F)F)cc5)CC[C@@H]4NCc4ccccc4)ccc3C2=O)C(=O)N1 (mixture of isomers) [Example 34] | 80%
13 | O=C1CCC(N2Cc3cc(OC4CN(Cc5ccccc5)CCC4NCc4ccccc4)ccc3C2=O)C(=O)N1 (racemic) [Example 2] | 94%
14 | CC(C)N[C@H]1CCN(Cc2ccn(C)n2)C[C@@H]1Oc1ccc2c(c1)CN(C1CCC(=O)NC1=O)C2=O (some centres unmarked) [Example 66] | 34%
15 | O=C1CCC(N2Cc3cc(OC4CN(Cc5ccccc5)CCC4NCc4cccnc4)ccc3C2=O)C(=O)N1 (racemic) [Example 14] | 91%
16 | O=C1CCC(N2Cc3cc(O[C@H]4CN(Cc5c(F)cccc5F)CC[C@@H]4NCc4ccccc4)ccc3C2=O)C(=O)N1 (mixture of isomers) [Example 24] | 93%
17 | O=C1CCC(N2Cc3cc(O[C@@H]4CN(C5CC5)CC[C@H]4NCc4ccccc4)ccc3C2=O)C(=O)N1 (mixture of isomers) [Example 16] | 57%
18 | O=C1CCC(N2Cc3cc(O[C@H]4CN(CCC(F)(F)F)CC[C@@H]4NCc4ccccc4)ccc3C2=O)C(=O)N1 (mixture of isomers) [Example 52] | 27%
19 | CCN(CC)C1CCN(Cc2ccc3ccccc3c2)CC1Oc1ccc2c(c1)CN(C1CCC(=O)NC1=O)C2=O (racemic) [Example 57] | 98%
20 | O=C1CCC(N2Cc3cc(O[C@H]4CN(Cc5ccc(-c6ccccc6)cc5)CC[C@@H]4NCc4ccccc4)ccc3C2=O)C(=O)N1 (mixture of isomers) [Example 31] | 101%
21 | COc1ccc(CN2CC[C@H](NCc3ccccc3)[C@@H](Oc3ccc4c(c3)CN(C3CCC(=O)NC3=O)C4=O)C2)cc1 (mixture of isomers) [Example 33] | 94%
22 | O=C1CCC(N2Cc3cc(OC4CN(Cc5ccccc5)CCC4NCCc4ccccc4)ccc3C2=O)C(=O)N1 (racemic) [Example 35] | 98%
23 | CC(C)CN1CCC(NCc2ccccc2)C(Oc2ccc3c(c2)CN(C2CCC(=O)NC2=O)C3=O)C1 (racemic) [Example 6] | 35%
24 | O=C1CCC(N2Cc3cc(OC4CN(Cc5ccccc5)CCC4NCc4ccncc4)ccc3C2=O)C(=O)N1 (racemic) [Example 15] | 73%
25 | CCNC1CCN(Cc2cccc(-c3ccccc3)c2)CC1Oc1ccc2c(c1)CN(C1CCC(=O)NC1=O)C2=O (racemic) [Example 60] | 83%
26 | CCN(CC)C1CCN(Cc2ccccc2)CC1Oc1ccc2c(c1)CN(C1CCC(=O)NC1=O)C2=O (racemic) [Example 11] | 90%
